Laboratory results taken from PubChem BioAssay (NCI).
Where “and” joins values, the source holds several entries; their conditions need not be identical. Equal values may be shown once.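 Briefly, cells in 96-well plates were exposed to five compound concentrations for 48 h, and endpoints were estimated by linear interpolation. Here, GI50 denotes the concentration required for 50% inhibition of growth. The concentration for full growth arrest is given as TGI.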

Tests used:
Test in all cases: NCI-60 cell line screen, 48 h
A498 renal = tested on: A498 renal
BT-549 breast = tested on: BT-549 breast
IGROV1 ovarian = tested on: IGROV1 ovarian
NCI-H23 lung = tested on: NCI-H23 lung
NCI/ADR-RES ovarian = tested on: NCI/ADR-RES ovarian
SF-295 CNS = tested on: SF-295 CNS
SK-OV-3 ovarian = tested on: SK-OV-3 ovarian
SW-620 colon = tested on: SW-620 colon
U251 CNS = tested on: U251 CNS
UO-31 renal = tested on: UO-31 renal

Row | Structure (SMILES) | GI50 (A498 renal) [µM] | TGI (A498 renal) [µM] | GI50 (BT-549 breast) [µM] | TGI (BT-549 breast) [µM] | GI50 (IGROV1 ovarian) [µM] | TGI (IGROV1 ovarian) | GI50 (NCI-H23 lung) [µM] | TGI (NCI-H23 lung) [µM] | GI50 (NCI/ADR-RES ovarian) [µM] | TGI (NCI/ADR-RES ovarian) [µM] | GI50 (SF-295 CNS) [µM] | TGI (SF-295 CNS) [µM] | GI50 (SK-OV-3 ovarian) [µM] | TGI (SK-OV-3 ovarian) | GI50 (SW-620 colon) [µM] | TGI (SW-620 colon) | GI50 (U251 CNS) [µM] | TGI (U251 CNS) | GI50 (UO-31 renal) [µM] | TGI (UO-31 renal)
1 | COc1ncnc2c(-c3ccccc3)cn(COCc3ccccc3)c12 | 1.96 | 10.1 | 2.57 | 7.6 | 7.16 | > 100 µM | 3.02 | > 100 | 3.17 | 19.1 | 2.82 | 15.4 | 7.69 | > 100 µM | 4.6 | > 100 µM | 4.06 | > 100 µM | 2.58 | 12 µM
2 | C/C=C(\C)C(=O)NC1=CC[C@@]2(C)C(=CCC3C2CC[C@@]2(C)C3CC[C@@H]2C(C)N(C)C)C1=O (stereo partly drawn) | 2.03 | 18.2 | 3.39 | 15.8 | 5.17 | 21 µM | 3.95 | 25.1 | 6.44 | 42.5 | 2.32 | 7.33 | 11.6 | 29.8 µM | 2.02 | 4.91 µM | 4.34 | 23.3 µM | 1.44 | 3.02 µM
3 | C=C(C)C(O)CCC1(C)C=Cc2c(c(C)cc3c2[nH]c2ccccc23)O1 (stereo not drawn) | – | 26.6 | 12.9 | 25.5 | 8.33 | 25 µM and 22 µM | – | 23.3 | – | 22.6 | – | 14.8 | 11 | 25 µM and 22.9 µM | 5.08 | 10.2 µM and 18.7 µM | – | 11.1 µM and 17.6 µM | 12 | 25 µM and 27.3 µM
4 | COc1cc(C(O)CCBr)c(OC)cc1C (stereo not drawn) | – | > 100 | – | > 84.4 | – | > 100 µM | – | > 100 | – | > 57.6 | – | > 73.1 | – | > 73.6 µM | – | > 100 µM | – | > 100 µM | – | > 100 µM
5 | N#Cc1ccc(OCc2nc(N)nc(N)c2-c2ccc(Cl)c(Cl)c2)cc1 | 1.43 | 10.8 | 9.98 | > 100 | 1.73 | > 100 µM | – | – | 1.55 | > 100 | 0.725 | > 100 | 4.72 | > 100 µM | 0.484 | > 100 µM | 0.589 | > 100 µM | 3.79 | > 100 µM
6 | Cc1c[n+](=O)c2ccccc2n1[O-] | – | > 100 | – | > 100 | – | > 100 µM | – | > 100 | – | > 100 | – | > 100 | – | > 100 µM | – | > 100 µM | – | > 100 µM | – | > 100 µM
7 | COC12C=C/C(=C(/C(=O)OCc3cncnc3)C(=O)CCCCCCCCC3(OC)C=C/C(=C(/C(=O)OCc4cncnc4)C(=O)CCCCCCCC1)O3)O2 | 0.961 | 1.7 | 0.188 | 2.07 | 0.589 | 1.96 µM | 0.186 | 0.839 | 0.609 | > 50 | 0.326 | 1.74 | 1.23 | 5.31 µM | 0.19 | 1.19 µM | 0.212 | 1.06 µM | 0.542 | 1.28 µM
